The values that follow come from patent US20230102379A1 (priority 2020, published 2023).

The melting point is the temperature of the solid-liquid transition.

Data set [1] has as its system L. crescens. The note with it: cited from earlier work.
A further data set concerns Xylella fastidiosa. It counts as cell-based. The note with it: for diameter of inhibition: highest dose tested (2.12 μmol).
The subject of data set [2] is L. crescens. In kind it is cell-based, Liberibacter crescens.
A further data set concerns Vibrio harveyi. The settings on record: cited from earlier work.
Another data set has as its system Micrococcus luteus. The note with it: cited from earlier work.
In the next data set the test system is MRSA. The note with it: cited from earlier work.
For data set [3], the system named is E. coli. The note with it: cited from earlier work.
Data set [4] relates to transcriptional accessory protein. The note with it: cited from earlier work.
Another data set has as its system Xf. The note with it: cited from earlier work.
Data set [5] relates to E. coli. The settings on record: agar diffusion; cited from earlier work. Background: Agar diffusion results depend on both activity and mobility in agar.
A further data set has as its system Bacillus megaterium. The settings on record: agar diffusion; cited from earlier work.

“Also recorded” adds a separate entry of the source. Read-outs that look alike come from different tables or passages of the source.

As to `CC1(C)S[C@@H]2[C@H](NC(=O)COc3ccccc3)C(=O)N2[C@H]1C(=O)O` [penicillin V], in the data set with L. crescens [1], the “concentration providing nearly complete inhibition of L. crescens” value was 0.1 µM.

`C/C=C/C(=O)n1nnc2ccccc21` gave a melting point of 91 to 93 °C.

Turning to `C/C=C/c1cc(O)cc(=O)o1` [Compound 5, (E)-4-hydroxy-6-(prop-1-en-1-yl)-2H-pyran-2-one], the melting point is 183 to 185 °C. Also, the “inhibition of Xf (in words)” value with Xylella fastidiosa was “inactive”. The compound further displayed a diameter of inhibition in the data set on L. crescens [2] (highest dose) of 2.6 cm. The diameter of inhibition with L. crescens [2] (lower doses) came to 0.2 cm.

On to `O=C1CCC(c2ccc(O)c3c2C(=O)C2OC2C3O)c2cccc(O)c21` (stereo not shown) [Compound 21, cladosporol A], for which the “antibacterial activity (in words)” value in the data set on Vibrio harveyi, in the data set with Micrococcus luteus, in the data set with MRSA and in the data set with E. coli [3] was “modest antibacterial activity” each time.

Regarding `CO/N=C(\C(=O)N[C@@H]1C(=O)N2C(C(=O)O)=C(COC(C)=O)CS[C@H]12)c1csc(N)n1` [cefotaxime], in the data set on L. crescens [1], the “concentration providing nearly complete inhibition of L. crescens” value was 0.7 µM.

For the compound `Cc1c(Cl)cccc1Nc1ccccc1C(=O)O` [Tolfenamic acid], in data set [4], the “inhibition of transcriptional accessory protein (in words)” value is recorded as “inhibits a transcriptional accessory protein”.

With `CCCc1cc2c(c(=O)o1)C(=O)CC(C)O2` (racemic) [Compound 3, 2-methyl-7-propyl-2,3-dihydropyrano[4,3-b]pyran-4,5-dione], in the data set with Xylella fastidiosa, the “dose at which activity is shown” value is recorded as “greater than 0.53 μmol” and the diameter of inhibition came out at 3.4 cm. Also, the “inhibition of L. crescens (in words)” value with L. crescens [2] is “notable linear relationships between compound dose and antibacterial response”.

Regarding `C/C=C/c1cc2c(c(=O)o1)C(=O)CC(C)O2` (racemic) [Compound 2, (E)-2-methyl-7-(prop-1-en-1-yl)-2,3-dihydropyrano[4,3-b]pyran-4,5-dione], the “inhibition of Xf (in words)” value in the data set on Xylella fastidiosa was “consistent, somewhat linear relationship between compound dose and antibacterial response; also recorded: more potent than 1; also recorded: potent inhibitor”; in the data set with Xylella fastidiosa (listed as deoxyradicinin) it was “low micromolar inhibitor”. The “inhibition of L. crescens (in words)” value in the data set on L. crescens [2] was “notable linear relationships between compound dose and antibacterial response; also recorded: most potent inhibitor of L. crescens tested; also recorded: potently inhibit; also recorded: potent inhibitor”; in the data set with L. crescens [2] (dose 1.06 μmol and higher), “complete inhibition”; in the data set with L. crescens [2] (listed as deoxyradicinin) it was “nanomolar inhibitor”. This compound yielded a diameter of inhibition in the data set on L. crescens [2] (lowest tested dose of 0.053 μmol) of 4.0 cm.

As to `C/C=C/c1cc2c(c(=O)o1)C(=O)C[C@H](C)O2` (single isomer, unassigned) [(−)-2, (−)-deoxyradicinin], the “inhibition of L. crescens (in words)” value with L. crescens [2] is “potently inhibit”.

For the compound `C/C=C/C(=O)c1c(O)cc(/C=C/C)oc1=O` [Compound 4, 3-((E)-but-2-enoyl)-4-hydroxy-6-((E)-prop-1-en-1-yl)-2H-pyran-2-one], the “inhibition of L. crescens (in words)” value in the data set with L. crescens [2] was “notable linear relationships between compound dose and antibacterial response”.

With `C/C=C/c1cc2c(c(=O)o1)C(=O)CC(C)O2` (single isomer, unassigned; (+)) [(+)-2, (+)-deoxyradicinin], the “inhibition of L. crescens (in words)” value in the data set with L. crescens [2] is on record as “potently inhibit”.

On to `C/C=C/c1cc2c(c(=O)o1)C(=O)[C@@H](O)[C@H](C)O2` [Compound 1, radicinin], for which, in the data set with Xylella fastidiosa, the “inhibition of Xf (in words)” value was “consistent, somewhat linear relationship between compound dose and antibacterial response”; the diameter of inhibition is listed as 10 cm. Also, the “inhibition of L. crescens (in words)” value in the data set with L. crescens [2] is “notable linear relationships between compound dose and antibacterial response”. Moreover, the “inhibition of Xf in vitro (in words)” value in the data set on Xf is reported as “inhibitor of Xf in vitro”.

Consider `CC(CCCCCCCCCCCCCCO[C@@H]1O[C@H](CO)[C@@H](O)[C@H](O)[C@@H]1O)C(O)=C1C(=O)C(C)N(C)C1=O` (stereo partly shown) [Compound 24, epicoccamide A], for which the “antibacterial activity (in words)” value in the data set with Vibrio harveyi, in the data set with Micrococcus luteus, in the data set on MRSA and in the data set with E. coli [3] was “modest antibacterial activity” each time. The “antibiotic activity (in words)” value in the data set on E. coli [5] and with Bacillus megaterium was “no detectable antibiotic activity” in each case.
